Among the data in US12421253B2 (Mirati Therapeutics, Inc., priority 2020, dated 2025) are IC50 values, retold here.

Some results are limits rather than exact numbers.

One experiment concerns the target T1, KRas^G12D (Homo sapiens, UniProt P01116, G12D).
T1 construct: […]; biotin (biotinylated); purchased Accelegan Inc
Nature of the experiment: KRas binding assay (TR-FRET displacement of Cy5 labelled tracer). For orientation: Time-resolved FRET reads energy transfer from a long-lived donor to a nearby acceptor.

The next experiment has as its target T2, KRas^WT (Homo sapiens, UniProt P01116).
T2 construct: […]; biotin (biotinylated); purchased Accelegan Inc
Described as above.

The next experiment deals with KRas^Q61H (Homo sapiens, UniProt P01116, Q61H). Kind of experiment: biochemical.
The target in another experiment is T3, KRas^G12S (Homo sapiens, UniProt P01116, G12S).
T3 construct: […]; biotin (biotinylated); purchased Accelegan Inc
Kind of experiment: KRas binding assay (TR-FRET displacement of Cy5 labelled tracer).

In the next experiment the target is T4, KRas^G12A (Homo sapiens, UniProt P01116, G12A).
T4 construct: […]; biotin (biotinylated); purchased Accelegan Inc
The experiment is described as above.

A further experiment addresses KRas^G12C (Homo sapiens, UniProt P01116, G12C). Kind of experiment: biochemical.
The next experiment deals with T5, KRas^G12V (Homo sapiens, UniProt P01116, G12V).
T5 construct: […]; biotin (biotinylated); purchased Accelegan Inc
Kind of experiment: KRas binding assay (TR-FRET displacement of Cy5 labelled tracer).

Experiment [1] deals with NCI-H358 (G12C) cells, phospho-ERK. Kind of experiment: Inhibition of KRas-mediated phosphorylation of ERK (phospho-ERK/GAPDH antibody detection, LI-COR). To be noted: Homo sapiens, 3 hours. Type of experiment: cell-based. In outline:
(§1)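 Cells seeded 20,000/well, attached 12-14 h, then compound (0.5% DMSO) for 3 h. Formaldehyde-fixed, methanol-permeabilized cells stained for phospho-ERK (Thr202/Tyr204) and GAPDH; infrared imaging. Ratio expressed as % of DMSO control; IC50 from 4-parameter fit.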

Experiment [2] relates to PSN-1 (G12R) cells, phospho-ERK. The experiment is described as above. Type of experiment: cell-based. To be noted: Homo sapiens, PSN1, 3 hours. Summed up:
as §1

The subject of experiment [3] is HCT116 (G13D) cells, phospho-ERK. Described as above. Type of experiment: cell-based. The settings on record: Homo sapiens, HCT-116, 3 hours. Summed up:
as §1

The test system of experiment [4] is NCI-H460 (Q61H) cells, phospho-ERK. The experiment is described as above. The experiment is classed as cell-based. To be noted: Homo sapiens, 3 hours. In outline:
as §1

Experiment [5] concerns NCI-H727 (G12V) cells, phospho-ERK. The description is as above. The experiment is classed as cell-based. To be noted: Homo sapiens, 3 hours. In outline:
as §1

The subject of experiment [6] is AsPC-1 (G12D) cells, phospho-ERK. Described as above. Type of experiment: cell-based. To be noted: Homo sapiens, ASPC1, 3 hours. Summed up:
as §1

The subject of experiment [7] is A549 (G12S) cells, phospho-ERK. Described as above. The experiment is classed as cell-based. The settings on record: Homo sapiens, 3 hours. In outline:
as §1

In another experiment the target is T6, KRas^G12R (Homo sapiens, UniProt P01116, G12R).
T6 construct: […]; biotin (biotinylated); purchased Accelegan Inc
Nature of the experiment: KRas binding assay (TR-FRET displacement of Cy5 labelled tracer).

The target of the next experiment is KRas^G13D (Homo sapiens, UniProt P01116, G13D). Nature of the experiment: biochemical.
The subject of the next experiment is H727 cells, pERK. Kind of experiment: Inhibition of KRas phosphorylation of ERK (Cisbio HTRF Advanced pERK assay). To be noted: Homo sapiens, NCI-H727, 3 h, read-out: Inhibition (HTRF IC50 nM) of KRas-mediated Phosphorylation of ERK, H727. Type of experiment: cell-based. In outline: (§2)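 Cells seeded at 6,000/well in RPMI with 10% FBS, grown overnight at 37 °C, then exposed 3 h to 10-dose 3-fold compound series from 10 uM (0.8% DMSO final); 0.2 uM trametinib as minimum control. Lysates read for pERK by HTRF after 2 h antibody incubation at room temperature.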

Another experiment concerns ASPC1 cells, pERK. The description is as above. Type of experiment: cell-based. To be noted: Homo sapiens, ASPC1, 3 h, AsPC-1 cells, read-out: Inhibition (HTRF IC50 nM) of KRas-mediated Phosphorylation of ERK, AsPC-1. In outline: as §2
Another experiment deals with H460 cells, pERK. Described as above. The experiment is classed as cell-based. The settings on record: Homo sapiens, NCI-H460, 3 hrs, read-out: Inhibition (HTRF IC50 nM) of KRas-mediated Phosphorylation of ERK, H460. Summed up: as §2
Another experiment deals with HCT116 cells, pERK. Described as above. The experiment is classed as cell-based. The settings on record: Homo sapiens, HCT-116, 3 hrs, read-out: Inhibition (HTRF IC50 nM) of KRas-mediated Phosphorylation of ERK, HCT116. Summed up: as §2
The next experiment concerns A549 cells, pERK. The description is as above. Type of experiment: cell-based. The settings on record: Homo sapiens, 3 hrs, read-out: Inhibition (HTRF IC50 nM) of KRas-mediated Phosphorylation of ERK, A549. In outline:
as §2

The subject of a further experiment is MKN1 cells, pERK. The experiment is described as above. Type of experiment: cell-based. To be noted: Homo sapiens, MKN-1, 3 h, read-out: Inhibition (HTRF IC50 nM) of KRas-mediated Phosphorylation of ERK, MKN1. Summed up: as §2
A further experiment has as its system PSN1 cells, pERK. The experiment is described as above. Type of experiment: cell-based. To be noted: Homo sapiens, PSN1, 3 h, read-out: Inhibition (HTRF IC50 nM) of KRas-mediated Phosphorylation of ERK, PSN1. In outline: as §2
The subject of another experiment is H358 cells, pERK. The description is as above. Type of experiment: cell-based. The settings on record: Homo sapiens, NCI-H358, 3 hrs, read-out: Inhibition (HTRF IC50 nM) of KRas-mediated Phosphorylation of ERK, H358. In outline: as §2

T1 sequence (P01116 1-169 isoform P01116-2 G12D): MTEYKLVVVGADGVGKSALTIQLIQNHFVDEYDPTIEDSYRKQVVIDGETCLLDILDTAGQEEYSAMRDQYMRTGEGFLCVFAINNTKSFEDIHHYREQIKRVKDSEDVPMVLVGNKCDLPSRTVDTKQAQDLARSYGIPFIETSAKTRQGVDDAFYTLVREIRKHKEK
T6 sequence (P01116 1-169 isoform P01116-2 G12R): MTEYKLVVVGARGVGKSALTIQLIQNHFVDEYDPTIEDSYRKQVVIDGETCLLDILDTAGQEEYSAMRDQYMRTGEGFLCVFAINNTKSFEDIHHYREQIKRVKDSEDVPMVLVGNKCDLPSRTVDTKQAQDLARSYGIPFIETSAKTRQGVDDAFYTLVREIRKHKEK
T5 sequence (P01116 1-169 isoform P01116-2 G12V): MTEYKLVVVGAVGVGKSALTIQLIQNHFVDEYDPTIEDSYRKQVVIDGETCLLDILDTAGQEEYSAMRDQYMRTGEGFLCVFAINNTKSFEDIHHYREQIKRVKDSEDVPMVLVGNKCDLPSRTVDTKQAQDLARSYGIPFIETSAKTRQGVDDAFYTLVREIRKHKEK
T2 sequence (P01116 1-169 isoform P01116-2): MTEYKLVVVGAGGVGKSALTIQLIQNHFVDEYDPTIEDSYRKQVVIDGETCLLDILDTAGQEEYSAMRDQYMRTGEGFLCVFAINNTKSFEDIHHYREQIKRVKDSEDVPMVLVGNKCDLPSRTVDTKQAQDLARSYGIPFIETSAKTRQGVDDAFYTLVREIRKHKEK
Chain of KRas^Q61H (P01116 1-169 isoform P01116-2 Q61H): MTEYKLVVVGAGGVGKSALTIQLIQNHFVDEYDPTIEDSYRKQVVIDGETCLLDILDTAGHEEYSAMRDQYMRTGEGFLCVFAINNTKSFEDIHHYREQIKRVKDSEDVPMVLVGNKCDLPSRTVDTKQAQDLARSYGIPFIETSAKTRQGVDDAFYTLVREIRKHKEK
T3 sequence (P01116 1-169 isoform P01116-2 G12S): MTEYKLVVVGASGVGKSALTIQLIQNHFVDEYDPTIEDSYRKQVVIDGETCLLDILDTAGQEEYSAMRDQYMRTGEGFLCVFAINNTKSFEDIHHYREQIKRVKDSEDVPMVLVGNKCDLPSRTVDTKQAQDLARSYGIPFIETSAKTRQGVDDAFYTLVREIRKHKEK
T4 sequence (P01116 1-169 isoform P01116-2 G12A): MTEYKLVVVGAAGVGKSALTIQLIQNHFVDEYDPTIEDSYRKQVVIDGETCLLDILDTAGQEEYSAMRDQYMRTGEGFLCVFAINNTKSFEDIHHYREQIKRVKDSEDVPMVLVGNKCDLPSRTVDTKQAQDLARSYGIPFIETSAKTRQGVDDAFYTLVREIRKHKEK
Chain of KRas^G13D (P01116 1-169 isoform P01116-2 G13D): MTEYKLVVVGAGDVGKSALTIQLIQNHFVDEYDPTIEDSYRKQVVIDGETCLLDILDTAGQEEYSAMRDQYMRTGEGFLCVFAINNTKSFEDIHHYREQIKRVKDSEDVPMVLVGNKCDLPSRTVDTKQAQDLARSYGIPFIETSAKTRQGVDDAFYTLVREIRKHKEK
Chain of KRas^G12C (P01116 1-169 isoform P01116-2 G12C): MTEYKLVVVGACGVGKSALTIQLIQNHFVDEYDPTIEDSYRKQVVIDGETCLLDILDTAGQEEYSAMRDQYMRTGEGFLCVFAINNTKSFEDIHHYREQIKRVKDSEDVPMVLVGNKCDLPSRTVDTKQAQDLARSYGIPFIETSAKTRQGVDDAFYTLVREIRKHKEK
Experimental for KRas^G12A: (§3) The ability of a compound to bind to KRas was measured using a TR-FRET displacement assay. […] After a 60-minute incubation at room temperature, the reaction was measured using a BMG LABTECH CLARIO star Plus via TR-FRET. […] The POC values were fit to a 4-parameter IC50 equation and the IC50 value reported.
Experimental for KRas^G12C: as §3
Experimental for KRas^G12D: as §3
Experimental for KRas^G12R: as §3
Experimental for KRas^G12S: as §3
Experimental for KRas^G12V: as §3
Experimental for KRas^G13D: as §3
Experimental for KRas^Q61H: as §3
Experimental for KRas^WT: as §3

In the case of `CCc1c(F)ccc2cc(O)cc(N3CCc4c(nc(OCC56CCCN5CCC6)nc4N4CCC[C@@](C)(O)C4)C3)c12` [Example 1, (R)-1-(7-(8-ethyl-7-fluoro-3-hydroxynaphthalen-1-yl)-2-((hexahydro-1H-pyrrolizin-7a-yl)methoxy)-5,6,7,8-tetrahydropyrido[3,4-d]pyrimidin-4-yl)-3-methylpiperidin-3-ol], the IC50 on KRas^G12D, at KRas^WT, on KRas^Q61H, on KRas^G12S, at KRas^G12A and against KRas^G12C was at most 2 nM each time. The IC50 (as a rule, the concentration that inhibits the measured activity by half) is at most 2 nM on KRas^G12V; 236 nM in experiment [1]; 1400 nM in [2]; 601 nM in experiment [3]; 357 nM in [4]; 1260 nM in experiment [5]. The concentration for half-maximal inhibition (IC50) in experiment [6] was 398 nM; in experiment [7] it was 1020 nM; on KRas^G12R, at most 2 nM; against KRas^G13D, at most 2 nM.

For `CCc1c(F)ccc2cc(O)cc(N3CCc4c(nc(OC[C@@]56CCCN5C[C@H](F)C6)nc4N4CCC[C@@](C)(O)C4)C3)c12` [Example 2, (R)-1-(7-(8-ethyl-7-fluoro-3-hydroxynaphthalen-1-yl)-2-(((2R,7aS)-2-fluorohexahydro-1H-pyrrolizin-7a-yl)methoxy)-5,6,7,8-tetrahydropyrido[3,4-d]pyrimidin-4-yl)-3-methylpiperidin-3-ol], the 50% inhibitory concentration (IC50) at KRas^G12D is at most 2 nM; on KRas^WT, at most 2 nM; against KRas^Q61H, at most 2 nM; on KRas^G12S, at most 2 nM; at KRas^G12A, at most 2 nM; in the experiment on H727 cells, pERK it was 315 nM. Also, the IC50 in the experiment with ASPC1 cells, pERK was 29 nM; in the experiment on H460 cells, pERK, 146 nM; in the experiment on HCT116 cells, pERK, 426 nM; with A549 cells, pERK, 144 nM; against KRas^G12C it was at most 2 nM; on KRas^G12V it was at most 2 nM. Further, the IC50 was determined as 252 nM in [1]; 3530 nM in [2]; 863 nM in experiment [3]; 184 nM in [4]; 798 nM in [5]; 280 nM in [6]. Further, the IC50 in experiment [7] was 241 nM; at KRas^G12R, at most 2 nM; on KRas^G13D it was 52 nM.

Consider `CCc1c(F)ccc2cc(O)cc(N3CCc4c(nc(OC[C@@]56CCCN5C[C@H](F)C6)nc4NCc4cccnc4N)C3)c12` [Example 17, 4-(4-(((2-aminopyridin-3-yl)methyl)amino)-2-(((2R,7aS)-2-fluorohexahydro-1H-pyrrolizin-7a-yl)methoxy)-5,6-dihydropyrido[3,4-d]pyrimidin-7(8H)-yl)-5-ethyl-6-fluoronaphthalen-2-ol], for which the concentration for half-maximal inhibition (IC50) is 26 nM on KRas^G12D; at most 2 nM at KRas^G12V; 232 nM in [1]; above 10000 nM in [2]; 10000 nM in [3]; 1130 nM in experiment [5]. In addition, the IC50 in experiment [7] is 189 nM; on KRas^G12R, at most 2 nM.

Regarding `CCc1c(F)ccc2cc(O)cc(N3CCc4c(nc(OC[C@@]56CCCN5C[C@H](F)C6)nc4N4CCOCC(C)(O)C4)C3)c12` (stereo partly drawn) [Example 20, 4-(7-(8-ethyl-7-fluoro-3-hydroxynaphthalen-1-yl)-2-(((2R,7aS)-2-fluorohexahydro-1H-pyrrolizin-7a-yl)methoxy)-5,6,7,8-tetrahydropyrido[3,4-d]pyrimidin-4-yl)-6-methyl-1,4-oxazepan-6-ol], the IC50 at KRas^G12D was at most 2 nM; on KRas^G12V, at most 2 nM; in experiment [1] it was 314 nM; in [2], above 10000 nM; in experiment [3], 860 nM; in [5], 747 nM. For the same compound, the IC50 in [7] was 446 nM; on KRas^G12R, 52 nM.

For the compound `CCc1c(F)ccc2cc(O)cc(N3CCc4c(nc(OC[C@@]56CCCN5C[C@H](F)C6)nc4N4CCCn5nc(CO)cc5C4)C3)c12` [Example 34, 5-ethyl-6-fluoro-4-(2-(((2R,7aS)-2-fluorohexahydro-1H-pyrrolizin-7a-yl)methoxy)-4-(2-(hydroxymethyl)-7,8-dihydro-4H-pyrazolo[1,5-a][1,4]diazepin-5(6H)-yl)-5,6-dihydropyrido[3,4-d]pyrimidin-7(8H)-yl)naphthalen-2-ol], the IC50 at KRas^G12D is at most 2 nM; in the experiment with H727 cells, pERK it was 217 nM; with MKN1 cells, pERK, 134 nM; in the experiment with PSN1 cells, pERK, at least 10000 nM; in the experiment with H358 cells, pERK, 38 nM; in the experiment on ASPC1 cells, pERK it was 31 nM. Also, the IC50 with H460 cells, pERK is 784 nM; in the experiment on HCT116 cells, pERK it was 1270 nM; with A549 cells, pERK it was 351 nM; at KRas^G12V it was at most 2 nM; in experiment [4], 774 nM; in experiment [5], 1040 nM. Moreover, the IC50 was 258 nM in experiment [6] and at most 2 nM at KRas^G12R.

`CCc1c(F)ccc2cc(O)cc(N3CCc4c(nc(OC[C@@]56CCCN5C[C@H](F)C6)nc4N4CCCC5(C4)NC(=O)NC5=O)C3)c12` (stereo partly drawn) [Example 59, 7-(7-(8-ethyl-7-fluoro-3-hydroxynaphthalen-1-yl)-2-(((2R,7aS)-2-fluorohexahydro-1H-pyrrolizin-7a-yl)methoxy)-5,6,7,8-tetrahydropyrido[3,4-d]pyrimidin-4-yl)-1,3,7-triazaspiro[4.5]decane-2,4-dione]: the IC50 on KRas^G12D is at most 2 nM; with H727 cells, pERK, 40 nM; with MKN1 cells, pERK, 5 nM; in the experiment with PSN1 cells, pERK, 25.3 nM; with H358 cells, pERK it was 4 nM; in the experiment with ASPC1 cells, pERK, 8 nM. Also, the IC50 with H460 cells, pERK is 9 nM; in the experiment with HCT116 cells, pERK it was 16 nM; in the experiment with A549 cells, pERK it was 3 nM; on KRas^G12V, at most 2 nM; in experiment [4] it was 17 nM; in [5], 181 nM. Also, the half-maximal inhibitory concentration (IC50) in [6] is 44 nM; at KRas^G12R it was at most 2 nM.

Take `CN(C)C(=O)c1cc2n(n1)CCCN(c1nc(OC[C@@]34CCCN3C[C@H](F)C4)nc3c1CCN(c1cc(O)cc4ccc(F)c(Br)c14)C3)C2` [Example 218, 5-(7-(8-bromo-7-fluoro-3-hydroxynaphthalen-1-yl)-2-(((2R,7aS)-2-fluorohexahydro-1H-pyrrolizin-7a-yl)methoxy)-5,6,7,8-tetrahydropyrido[3,4-d]pyrimidin-4-yl)-N,N-dimethyl-5,6,7,8-tetrahydro-4H-pyrazolo[1,5-a][1,4]diazepine-2-carboxamide]: the IC50 is at most 2 nM at KRas^G12D; 86 nM in the experiment with H727 cells, pERK; 85 nM in the experiment with MKN1 cells, pERK; 6070 nM in the experiment with PSN1 cells, pERK; 61 nM in the experiment with H358 cells, pERK; 46 nM in the experiment with ASPC1 cells, pERK. In addition, the half-inhibitory concentration (IC50) with H460 cells, pERK is 845 nM; with HCT116 cells, pERK, 1340 nM; in the experiment with A549 cells, pERK it was 294 nM; at KRas^G12V it was at most 2 nM; at KRas^G12R, at most 2 nM.
